Data on 3 compounds can be found in patent US20060111309A1, “Chalcomycin derivatives” (Biofrontera Discovery GmbH, priority 2002, published 2006).

Common to all, as to assay type: cell-based
The test system of assay [1] is Stapylococcus aureus. Put plainly: agar diffusion test. The following applies: 10 μg/9 mm Ø plate. For orientation: A growth-free zone around the sample is the usual read-out of agar diffusion tests.
The test system of assay [2] is Escherichia coli. The experiment in a line: agar diffusion test. Particulars: 10 μg/9 mm Ø plate.
For assay [3], the system named is Bacillus subtillis. The experiment in a line: agar diffusion test. Particulars: 10 μg/9 mm Ø plate.
The test system of a further assay is Candida albicans. Put plainly: agar diffusion test. Particulars: 10 μg/9 mm Ø plate.
The subject of another assay is Mucor miehei. Put plainly: agar diffusion test. The following applies: 10 μg/9 mm Ø plate.
Assay [4] has as its system Stapylococcus aureus. The experiment in a line: dilution method MIC.
Assay [5] deals with Escherichia coli. Put plainly: dilution method MIC.
Assay [6] relates to Bacillus subtillis. The experiment in a line: dilution method MIC.
In a further assay the test system is Chlorella sorokiniana. The experiment in a line: dilution method MIC.
The test system of the next assay is Scenedesmus subspicatus. The experiment in a line: dilution method MIC.

≈ marks a conversion by molar mass, not a printed value.

As to chalcomycin B [1b], the “diameter of the inhibition zone, SA” value in the assay with Stapylococcus aureus [1] amounted to 23 mm. Moreover, the “diameter of the inhibition zone, EC” value in the assay on Escherichia coli [2] is listed as 28 mm. The “diameter of the inhibition zone, BS” value with Bacillus subtillis [3] came to 21 mm. In the assay on Candida albicans, the “diameter of the inhibition zone, CA” value is listed as 0 mm. In addition, the “diameter of the inhibition zone, MM” value in the assay with Mucor miehei was determined as 0 mm. In the assay on Stapylococcus aureus [4], the “MIC, SA” value stood at 0.39 µg/mL. Moreover, the “MIC, EC” value in the assay on Escherichia coli [5] was over 50 µg/mL. Further, the “MIC, BS” value in the assay with Bacillus subtillis [6] is 6.25 µg/mL. In addition, the “MIC, CS” value against Chlorella sorokiniana was found to be 50 µg/mL. For the same compound, in the assay with Scenedesmus subspicatus, the “MIC, SS” value came to 50 µg/mL.
Consider `CC[C@H]1OC(=O)[C@H](C)[C@@H](O[C@H]2C[C@@](C)(OC)[C@@H](O)[C@H](C)O2)[C@H](C)[C@@H](O[C@@H]2O[C@H](C)C[C@H](N(C)C)[C@H]2O)[C@](C)(O)C[C@@H](C)C(=O)[C@H](C)[C@@H](O)[C@]1(C)O` [E, erythromycin], for which the “diameter of the inhibition zone, SA” value with Stapylococcus aureus [1] was found to be 24 mm. In the assay with Escherichia coli [2], the “diameter of the inhibition zone, EC” value stood at 30 mm. Further, in the assay on Bacillus subtillis [3], the “diameter of the inhibition zone, BS” value turned out to be 22 mm.
With `CO[C@@H]1[C@H](O)[C@@H](C)O[C@@H](OC[C@H]2[C@@H]3O[C@H]3/C=C/C(=O)[C@@](C)(O)C[C@H](C)[C@H](O[C@@H]3O[C@H](C)C[C@H](OC)[C@H]3O)[C@@H](C)/C=C/C(=O)O[C@@H]2C)[C@@H]1OC` [1a, Chalcomycin], in the assay on Stapylococcus aureus [1], the “diameter of the inhibition zone, SA” value is given as 30 mm. Besides, the “diameter of the inhibition zone, EC” value in the assay with Escherichia coli [2] was determined as 32 mm. Also, the “diameter of the inhibition zone, BS” value with Bacillus subtillis [3] is listed as 25 mm. Besides, the “diameter of the inhibition zone, CA” value with Candida albicans turned out to be 0 mm. Moreover, in the assay with Mucor miehei, the “diameter of the inhibition zone, MM” value is 0 mm. Besides, in the assay on Stapylococcus aureus [4], the “MIC, SA” value stood at 0.39 µg/mL (≈ 0.556 µM). In addition, in the assay with Escherichia coli [5], the “MIC, EC” value was over 50 µg/mL. Moreover, the “MIC, BS” value in the assay with Bacillus subtillis [6] was found to be 6.25 µg/mL (≈ 8.92 µM). Further, the “MIC, CS” value against Chlorella sorokiniana turned out to be 50 µg/mL (≈ 71.3 µM). For the same compound, the “MIC, SS” value against Scenedesmus subspicatus came out at 50 µg/mL (≈ 71.3 µM).
